Results as given in patent US12679812B2, “18F-labeled triazole containing PSMA inhibitors” (Cornell University, priority 2016, dated 2026).
Several values for one entry are separate records, joined by “and”; a condition that tells them apart may be missing. Equal entries are not always repeated. Where two headings read alike, the source gives them in different places.

Assays:
LNCaP xenograft tumor [1] = assay: microPET/CT imaging of LNCaP xenograft tumor-bearing mice; type: in vivo; details: for Max. LNCaP Tumor Uptake: image derived calculation of tumor uptake (microPET/CT), at time of maximum uptake
Description: (§1) Inoculation of mice with xenografts. All animal studies were approved by the Institutional Animal Care and Use Committee of Weill Cornell Medicine and were undertaken in accordance with the guidelines set forth by the USPHS Policy on Humane Care and Use of Laboratory Animals. Animals were housed under standard conditions in approved facilities with 12 h light/dark cycles. Food and water was provided ad libitum throughout the course of the studies. Male inbred athymic nu/nu mice were purchased from The Jackson Laboratory. For inoculation in mice, LNCaP cells were suspended at 4×10^7 cells/mL in a 1:1 mixture of PBS:Matrigel (BD Biosciences). Each mouse was injected in the left flank with 0.25 mL of the cell suspension. The mice were imaged when the tumors reached approximately 200-400 mm^3, while biodistributions were conducted when tumors were in the range 100-400 mm^3.
Imaging. […] Specific activity was greater than […]. The mice were imaged by pPET/CT (Inveon™; Siemens Medical Solutions, Inc.) at 1 h, 2 h, 4 h, and 6 h post-injection ([^18F]fluorinated compounds) or 1 h and 3 h post-injection ([^68Ga]Ga-PSMA-HBED-CC). Total acquisition time was thirty minutes, and a CT scan was obtained either immediately before or immediately after the acquisition for both anatomical co-registration and attenuation correction. The data were reconstructed using the commercial Inveon™ software supplied by the vendor. Tumor uptake was estimated by drawing a region of interest (ROI).

PSMA on LNCaP cells = biological target: T1, PSMA on LNCaP cells (Homo sapiens, UniProt Q04609); assay: Competitive binding assay against 99mTc-MIP-1427 for binding to PSMA on LNCaP cells; details: non-radioactive fluorine-containing ligands, 1 nM 99mTc-MIP-1427, 1 hour
T1 construct: host or cells: LNCaP
Description: Cell Culture. The human prostate cancer cell line, LNCaP, was obtained from the American Type Culture Collection. Cell culture supplies were from Invitrogen unless otherwise noted. LNCaP cells were maintained in RPMI-1640 medium supplemented with 10% fetal bovine serum (Hyclone), 4 mM L-glutamine, 1 mM sodium pyruvate, 10 mM N-2-hydroxyethylpiperazine-N-2-ethanesulfonic acid (HEPES), 2.5 mg/mL D-glucose, and 50 μg/mL gentamicin in a humidified incubator at 37° C./5% C02. Cells were removed from flasks for passage or for transfer to 12-well assay plates by incubating them with 0.25% trypsin/ethylenediaminetetraacetic acid (EDTA).
In vitro determination of IC50. IC50 values of the non-radioactive fluorine-containing ligands were determined by screening in a multi-concentration competitive binding assay against ^99mTc-((7S,12S,16S)-1-(1-(carboxymethyl)-1H-imidazol-2-yl)-2-((1-(carboxymethyl)-1H-imidazol-2-yl)methyl)-9,14-dioxo-2,8,13,15-tetraazaoctadecane-7,12,16,18-tetracarboxylic acid technetium tricarbonyl complex) (^99mTc-MIP-1427) for binding to PSMA on LNCaP cells, according to methods previously described. See Hillier S M, Maresca K P, Lu G, Merkin R D, Marquis J C, Zimmerman C N, Eckelman W C, Joyal J L, Babich J W. 99mTc-Labeled Small-Molecule Inhibitors of Prostate-Specific Membrane Antigen for Molecular Imaging of Prostate Cancer. J. Nucl. Med. 2013, 54, 1369-1376, incorporated herein by reference. The LNCaP cells were plated 48 hours prior to the experiment to achieve a density of approximately 5×10^5 cells/well (in triplicate) in RPMI-1640 medium supplemented with 0.25% bovine serum albumin prior to performing the assay. LNCaP cells were incubated for 1 hour with 1 nM ^99mTc-MIP-1427 in serum free RPMI-1640 medium in the presence of 1-10,000 nM test compounds. Radioactive incubation media was then removed by pipette and the cells were washed twice using 1 mL ice-cold HEPES buffer. Cells were harvested from the plates and transferred to tubes for radioactive counting using a Packard Cobra II Gamma Counter. IC50 values were determined by non-linear regression using GraphPad Prism software.

LNCaP xenograft tumor [2] = assay: Ex vivo biodistribution in LNCaP xenograft tumor-bearing mice; details: for Tumor uptake relative to [68Ga]Ga-PSMA-HBED-CC: at the time of maximum tumor uptake; for Time p.i. of max. LNCaP tumor uptake: biodistribution at 1, 2, 4 h; for Max. LNCaP Tumor Uptake: biodistribution; for Max. LNCaP Tumor Uptake / Tumor uptake: n=5
Description: as §1
Biodistribution. LNCaP xenograft tumor-bearing mice (n=5 per time point) were injected via the tail vein with a bolus injection of 370 kBq (10 μCi) of either [^18F]RPS-040 or [^18F]RPS-041. The specific activity of the compounds was […], respectively. The mice were euthanized by asphyxiation under isofluorane at 1 h, 2 h and 4 h post injection. An additional set of mice (n=5) was co-administered [^18F]RPS-040 (370 kBq; 10 μCi) and 2-PMPA (approx. 250 μg; 10 mg/kg) and sacrificed at 1 h post injection to determine the uptake specificity. A full biodistribution study was conducted on all mice, and tissues were excised, weighed and counted in an automated γ-counter. Tissue time-activity values were expressed as percentage injected dose per gram of tissue (% ID/g). Statistical comparisons were performed using the standard Student's t-test for a 95% confidence interval.

PSMA = biological target: T2, PSMA (Homo sapiens, UniProt Q04609); details: for PSMA, competitive binding assay using LNCaP cells, literature value, cited from earlier work
T2 construct: host or cells: LNCaP

LNCaP tumor = details: reported study, cited from earlier work; for Tumor uptake (Max. LNCaP Tumor Uptake): 3 h post injection
[3] = 1 h post injection, co-administered with 2-PMPA (blocked)
[4] = listed as [^68Ga]Ga-PSMA-HBED-CC

T1 sequence (Q04609 whole entry): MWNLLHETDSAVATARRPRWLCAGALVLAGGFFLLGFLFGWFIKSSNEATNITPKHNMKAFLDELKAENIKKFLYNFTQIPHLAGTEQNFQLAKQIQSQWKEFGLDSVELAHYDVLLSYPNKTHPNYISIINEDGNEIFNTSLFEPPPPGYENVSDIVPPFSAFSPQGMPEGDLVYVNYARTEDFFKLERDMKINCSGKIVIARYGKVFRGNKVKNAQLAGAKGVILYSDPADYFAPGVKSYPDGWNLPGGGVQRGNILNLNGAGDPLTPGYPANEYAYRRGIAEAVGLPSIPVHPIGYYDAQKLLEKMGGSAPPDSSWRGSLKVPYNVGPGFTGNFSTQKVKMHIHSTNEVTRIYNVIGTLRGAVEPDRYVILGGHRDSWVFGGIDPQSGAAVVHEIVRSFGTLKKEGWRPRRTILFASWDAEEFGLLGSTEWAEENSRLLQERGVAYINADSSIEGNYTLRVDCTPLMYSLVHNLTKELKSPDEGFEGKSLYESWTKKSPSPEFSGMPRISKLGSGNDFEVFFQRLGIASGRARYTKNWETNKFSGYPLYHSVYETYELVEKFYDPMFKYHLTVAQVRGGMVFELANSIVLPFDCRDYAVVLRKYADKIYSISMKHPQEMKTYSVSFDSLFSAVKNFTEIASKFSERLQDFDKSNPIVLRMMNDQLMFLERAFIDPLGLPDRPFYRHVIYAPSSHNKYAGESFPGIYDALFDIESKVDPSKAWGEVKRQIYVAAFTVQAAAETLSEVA
T2 sequence (Q04609 whole entry): as above

Max. LNCaP Tumor Uptake (LNCaP xenograft tumor [1])	IC50 (PSMA on LNCaP cells)	Tumor-to-blood ratio (LNCaP xenograft tumor [2]; 1 h post injection)	Tumor-to-blood ratio relative to [68Ga]Ga-PSMA-HBED-CC (LNCaP xenograft tumor [2]; 1 h post injection)	Tumor-to-kidney ratio (contrast) relative to [68Ga]Ga-PSMA-HBED-CC (LNCaP xenograft tumor [2]; 1 h post injection)	Uptake in the kidneys (LNCaP xenograft tumor [2]; 2 h post injection)	Uptake in the liver (LNCaP xenograft tumor [2]; 2 h post injection)	Uptake in the spleen (LNCaP xenograft tumor [2]; 2 h post injection)	Tumor-to-blood ratio (LNCaP xenograft tumor [2]; 4 h post injection)	Tumor uptake relative to [68Ga]Ga-PSMA-HBED-CC (LNCaP xenograft tumor [2])	Time p.i. of max. LNCaP tumor uptake (LNCaP xenograft tumor [2])	Max. LNCaP Tumor Uptake (LNCaP xenograft tumor [2]; 2 h post injection)	Structure (SMILES)	further results
12.51 % ID/g	3.2 nM	20.78±7.87	more than two-fold	twelve-fold greater	23.93±5.45 % ID/g	2.51±0.21 % ID/g	1.13±0.47 % ID/g	118.4±69.4	nearly two-fold greater	2 h	10.86 ± 1.03^ % ID/g	O=C(O)CC[C@H](NC(=O)N[C@@H](CCCCNC(=O)Nc1ccc(-c2cn(CCF)nn2)cc1)C(=O)O)C(=O)O [RPS-041, (((S)-1-Carboxy-5-(3-(4-(1-(2-fluoroethyl)-1H-1,2,3-triazol-4-yl)phenyl)ureido)pentyl)carbamoyl)-L-glutamic acid]	Contrast (tumor-to-background) relative to [18F]RPS-040 (LNCaP xenograft tumor [2]; 2 h post injection): two-fold greater; Max. LNCaP Tumor Uptake (LNCaP xenograft tumor [2]; 2 h post injection, listed as [^18F]RPS-041): 10.86±1.03 % ID/g
14.30 % ID/g	7 nM	28.8±8.06	three-fold greater	ten	60.94±8.06 % ID/g	4.72±0.93 % ID/g	3.23±1.26 % ID/g	92.93±75.67	more than two-fold greater	2 h	14.30 ± 2.49^ % ID/g	O=C(O)CC[C@H](NC(=O)N[C@@H](CCCCNC(=O)Nc1cccc(-c2cn(CCF)nn2)c1)C(=O)O)C(=O)O [RPS-040, (((S)-1-Carboxy-5-(3-(3-(1-(2-fluoroethyl)-1H-1,2,3-triazol-4-yl)phenyl)ureido)pentyl)carbamoyl)-L-glutamic acid]	Uptake in the kidneys (LNCaP xenograft tumor [2]; [3]): 5.95±1.65 % ID/g; Uptake in the spleen (LNCaP xenograft tumor [2]; [3]): 0.32±0.05 % ID/g; Tumor uptake (LNCaP xenograft tumor [2]; [3]): 1.75±0.15 % ID/g; Uptake in the kidneys (LNCaP xenograft tumor [2]; 1 h post injection, unblocked): 74.24±10.71 % ID/g; Uptake in the spleen (LNCaP xenograft tumor [2]; 1 h post injection, unblocked): 4.97±1.55 % ID/g; Tumor uptake (LNCaP xenograft tumor [2]; 1 h post injection, unblocked): 12.69±1.56 % ID/g; Max. LNCaP Tumor Uptake (LNCaP xenograft tumor [2]; 2 h post injection, listed as [^18F]RPS-040): 14.30±2.49 % ID/g
												O=C([O-])CN(CCN(CC(=O)[O-])Cc1cc(CCC(=O)NCCCCCC(=O)NCCCC[C@H](NC(=O)N[C@@H](CCC(=O)O)C(=O)O)C(=O)O)ccc1[O-])Cc1cc(CCC(=O)O)ccc1[O-].[68Ga+3].[OH3+] [^68Ga-PSMA-HBED-CC]	IC50 (PSMA): 24.3 ± 2 nM; IC50 (PSMA; [4]): ~24 nM; Uptake in the liver or intestine (LNCaP xenograft tumor [1]; microPET/CT, 1 h post injection): No uptake; Activity in the kidney (LNCaP tumor; 1 h): 314.44±90.61 % ID/g; Activity in the spleen (LNCaP tumor; 1 h): 31.73±14.09 % ID/g; Tumor uptake (LNCaP tumor; 1 h post injection): 5.81±1.67 % ID/g; Activity in the kidney (LNCaP tumor; 3 h): 207.97±58.38 % ID/g; Activity in the spleen (LNCaP tumor; 3 h): 13.85±3.53 % ID/g; Tumor uptake (Max. LNCaP Tumor Uptake) (LNCaP tumor): 6.27 ± 1.44 % ID/g; Tumor uptake (Max. LNCaP Tumor Uptake) (LNCaP tumor; [4]): 6.27±1.44 % ID/g; Time p.i. of max. LNCaP tumor uptake (LNCaP tumor; 1 h and 3 h): 3 h

Structure (SMILES)	Max. LNCaP Tumor Uptake (LNCaP xenograft tumor [1])	IC50 (PSMA on LNCaP cells)	Tumor-to-blood ratio (LNCaP xenograft tumor [2]; 1 h post injection)	Tumor-to-blood ratio relative to [68Ga]Ga-PSMA-HBED-CC (LNCaP xenograft tumor [2]; 1 h post injection)	Tumor-to-kidney ratio (contrast) relative to [68Ga]Ga-PSMA-HBED-CC (LNCaP xenograft tumor [2]; 1 h post injection)	Uptake in the kidneys (LNCaP xenograft tumor [2]; 2 h post injection)	Uptake in the liver (LNCaP xenograft tumor [2]; 2 h post injection)	Uptake in the spleen (LNCaP xenograft tumor [2]; 2 h post injection)	Tumor-to-blood ratio (LNCaP xenograft tumor [2]; 4 h post injection)	Tumor uptake relative to [68Ga]Ga-PSMA-HBED-CC (LNCaP xenograft tumor [2])	Time p.i. of max. LNCaP tumor uptake (LNCaP xenograft tumor [2])	Max. LNCaP Tumor Uptake (LNCaP xenograft tumor [2]; 2 h post injection)	further results
O=C(O)CC[C@H](NC(=O)N[C@@H](CCCCNC(=O)Nc1ccccc1OCc1cn(CCF)nn1)C(=O)O)C(=O)O [RPS-039, (((S)-1-Carboxy-5-(3-(2-((1-(2-fluoroethyl)-1H-1,2,3-triazol-4-yl)methoxy)phenyl)ureido)pentyl)carbamoyl)-L-glutamic acid]	5.87±0.27 % ID/g and 5.89 ± 0.27^c % ID/g	14 nM											Route of clearance / excretion (LNCaP xenograft tumor [1]; from microPET/CT images): clearance via the hepatobiliary pathway in addition to renal clearance; Time p.i. of max. LNCaP tumor uptake (LNCaP xenograft tumor [1]; microPET/CT imaging at 1, 2, 4, 6 h): 2 h
